Data from paper PMC5099944, “Design, synthesis and biological evaluation of hybrids of β-carboline and salicylic acid as potential anticancer and apoptosis inducing agents” (Scientific Reports, 2016).

What was measured:
[1] = test system: SMMC-7721 cells; test: MTT assay, proliferation of SMMC-7721 cells; type: cell-based, human; settings: Homo sapiens
Method: (§1) The in vitro antitumor activities of the synthesized compounds 7a-l and 8a-l against five human cancer cells were evaluated in MTT assays using 5-fluorouracil (5-FU) and harmine as positive controls. These cells are human hepatocellular carcinoma cells (SMMC-7721 and Hep G2), human colon cancer cell lines (HCT116), human bladder carcinoma cells (EJ), and human lung cancer cells (H460).
(§2) Hepatocellular carcinoma cells (SMMC-7721 and Hep G2), Human colon cancer cell lines (HCT116), human bladder carcinoma cells (EJ) or human lung cancer cells (H460) at 10^4 cells per well were cultured in 10% FBS DMEM in 96-well flat-bottom microplates overnight. The cells were incubated in triplicate with, or without, different concentrations of each test compound for 48 h. During the last 4 h incubation, 30 μL of tetrazolium dye (MTT) solution (5 mg mL^−1) was added to each well. The resulting MTT-formazan crystals were dissolved in 150 μL DMSO, and absorbance was measured spectrophotometrically at 570 nm using an ELISA plate reader. The inhibition induced by each test compound at the indicated concentrations was expressed as a percentage. The concentration required for 50% inhibition (IC50) was calculated using the software (GraphPadPrism Version 4.03).

[2] = test system: Bax, Bcl-2, caspase-3, PARP in SMMC-7721 cells; test: Western blot assay of apoptosis-related proteins; type: cell-based, human
Method: Next, to investigate the preliminarily molecular mechanisms underlying the cell apoptosis profiles in 8h-treated cells, we conducted western blot analysis to examine the expression of apoptosis proteins in SMMC-7721 cells. It is well known that Bcl-2 and Bax are anti-apoptotic or pro-apoptotic regulator proteins, respectively, and caspase-3 is the execution factor of apoptosis. In addition, PARP is one of several known cellular substrates for caspase-3 and the cleavage of PARP by caspase-3 is considered to be a hallmark of apoptosis.
Figure 5 Effect of 8h on the expression of apoptosis-related proteins in SMMC-7721 cells. (A) The expression of Bax, Bcl2, caspase 3 and β-actin was examined by western blot analysis. SMMC-7721 cells were incubated with, or without, 8h at the indicated concentrations for 48 h and the levels of protein expression were detected using specific antibodies, and β-actin was used as the control. Data shown are representative images of each protein for three separate experiments. (B) Quantitative analysis: the relative levels of each protein compared to control β-actin were determined by densimetric scanning. Data are expressed as means ± SD from three separate experiments. *P < 0.01 vs control.
The mechanisms of the cell apoptosis were determined by western blot assay. SMMC-7721 cells at 1.5 × 10^5/mL were treated with 3.5, 7.0, or 14 μM 8h or vehicle control for […]. After harvested and lyzed, the cell lysates (50 μg/lane) were separated by SDS-PAGE (12% gel) and transferred onto nitrocellulose membranes. After blocked with 5% fat-free milk, the target proteins were probed with anti-Bcl-2, anti-Bax, anti-caspase-3, anti-PARP, and anti-β-actin antibodies (Cell Signaling, Boston), respectively. The bound antibodies were detected by HRP-conjugated second antibodies and visualized using the enhanced chemiluminescent reagent.

[3] = test system: LO2 cells; test: MTT assay, proliferation of normal liver LO2 cells; type: cell-based, human
Method: Given the strong growth inhibitory activity of 8h in vitro, it was profiled for antitumor selectivity by examining its inhibitory effects on the growth of SMMC-7721 cells and LO2 cells (human hepatocellular normal cells).
Figure 3 (A) Inhibitory effects of 8h on the proliferation of SMMC-7721 and LO2 cells. Cells were incubated with the indicated concentrations of 8h for 48 h. Cell proliferation was assessed using the MTT assay. Data are means ± SD of the inhibition (%) from three independent experiments. (B) Inhibitory effects of 5h, 8h, and SA or the vehicle control against SMMC-7721 and LO2 cells. SMMC-7721 and LO2 cells were incubated with the indicated compounds at 25 μM for 48 h, and cell proliferation was assessed by the MTT assay. Data are means ± SD of the inhibition (%) from three independent experiments. *P < 0.01 versus control of SMMC-7721, ^#P < 0.01 inhibitory effects of 8h in SMMC-7721 versus LO2 cells.
as §2

[4] = test system: Hep G2 cells; test: MTT assay, proliferation of Hep G2 cells; type: cell-based; settings: Homo sapiens, HepG2, 48 h, read-out: In vitro cytotoxicity (IC50) Hep G2
Method: as §1, §2

[5] = test system: human cancer cells (SMMC-7721, Hep G2, HCT116, EJ, H460); test: MTT assay, summary statements across several human cancer cell lines; type: cell-based
Method: as §1, §2

[6] = test system: SMMC-7721 cells; test: Mitochondrial membrane potential assay (JC-1); type: cell-based, human; settings: 14 μM, 48 h (method b112 says 24 h)
Method: The mitochondrial pathway plays an important role in cell apoptosis. To determine whether mitochondria is involved in the apoptosis-inducing effect of 8h, changes in mitochondrial membrane potential were investigated with a fluorescent probe JC-1. JC-1 is a lipophilic cationic dye which facilitates the penetration of mitochondrial membrane due to the decrease of membrane potential, indicated by a fluorescence shift from red to green. The cells were treated with vehicle alone, with different concentrations of 8h (7.0 or 14 μM), or 14 μM 5-FU for 48 h, and then stained with JC-1. […] The percentage of cells emitting green fluorescence reached 57% at the higher dose of 14 μM. The observations indicate that 8h plays a role in the dissipation of mitochondrial membrane potential and the apoptosis effect of 8h is associated with mitochondrial depolarization in cells.
Mitochondrial membrane potential was assessed using a Beyotime (China) kit with JC-1. Briefly, the SMMC-7721 cells in the logarithmic growth phase were treated with 8h (7.0 or 14 μM), 5-FU (14 μM), or vehicle control for 24 h. The cells were harvested, and then labeled with JC-1 in accordance with the manufacturer’s instructions. The samples labeled with JC-1 were analyzed via flow cytometry. For the detection of JC-1, excitation was set at 530 nm, and emissions collected at 585 nm.

[7] = test system: H460 cells; test: MTT assay, proliferation of H460 cells; type: cell-based; settings: NCI-H460, 48 h, H460 human lung cancer cells, read-out: In vitro cytotoxicity (IC50) H460
Method: as §1, §2

[8] = test system: EJ cells; test: MTT assay, proliferation of EJ cells; type: cell-based; settings: 48 h, EJ human bladder carcinoma cells, read-out: In vitro cytotoxicity (IC50) EJ
Method: as §1, §2

[9] = western blot, 3.5, 7.0 or 14 μM

Cc1nc(C(=O)NCCCCCNC(=O)c2ccccc2O)cc2c1[nH]c1ccccc12 [8h, N-(5-(2-Hydroxybenzamido)pentyl)-1-methyl-9H-pyrido[3,4-b]indole-3-carboxamide]
IC50 ([1]; SMMC-7721, 48 h, read-out: In vitro cytotoxicity (IC50) SMMC-7721, MTT assay, 48 h, SMMC-7721 human hepatocellular carcinoma cells): 6.97 µM
inhibition at 25 µM ([1]; SMMC-7721, 25 μM, 48 h, MTT assay, read-out: Inhibition of SMMC-7721 cell proliferation): ~90%
Expression of Bcl-2 [2, 9]: dramatically reduced in a concentration-dependent manner
Protein levels of Bax [2, 9]: significantly increased
Cleavage of PARP and caspase-3 ([2]; western blot, vs control group): more significant cleavage of both PARP and caspase-3 than the control group
Inhibitory effect on LO2 cells ([3]; 25 μM, 48 h, MTT assay): little inhibitory effects
IC50 ([3]; L02, MTT assay, 48 h, LO2 human hepatocellular normal cells, read-out: IC50 against liver normal LO2 cells): 55.2 µM
Selectivity: IC50 on SMMC-7721 fold lower than against LO2 cells ([3]; SMMC-7721 vs LO2): 9 fold
Growth inhibitory activity on non-cancer LO2 cells ([3]; concentrations up to 25 μM, 48 h, MTT): no apparent growth inhibitory activity
IC50 [4]: 7.12 µM
IC50 ([5]; Homo sapiens, SMMC-7721, Hep G2, HCT116, MTT, read-out: IC50 values for liver and colon cancer cells growth (range over cell lines)): 6.97 to 8.25 µM
IC50 fold lower than that of 5-FU ([5]; liver and colon cancer cells): 4~6 fold
Percentage of cells emitting green fluorescence (JC-1) [6]: 57%
IC50 [7]: 13.1 µM
IC50 [8]: 7.89 µM
